Assay results taken from patent US4138554A, “7-[D-α-(4-Hydroxy-1,5-naphthyridine-3-carboxamido)-α-phenyl (and p-hydroxyphenyl)acetamido]-3-carbamoyloxymethyl-3-cephem-4-carboxylic acids” (priority 1977, dated 1979).
In brackets after ≈: the same amount, converted by molar mass. Like-named read-outs stand apart in the source and are kept apart here.

Experiments:
P. morganii = assay: MIC by serial two-fold agar dilution (Mueller-Hinton agar), P. morganii; assay type: cell-based
Description: (§1) Minimum inhibitory concentrations (MIC) of BB-S520 were determined by serial two-fold agar dilution method using Steers' apparatus on Meuller-Hinton agar plate against 31 test organisms for the primary screening and also against 61 strains of Pseudomonas aeruginosa for the secondary evaluation. The results are shown in Table 1 and Table 2 along with those of BB-S514 and sulbenicillin.
(§2) Minimum inhibitory concentrations (MIC) of cephalosporins in the present study were determined by serial two-fold agar dilution method using Steers' apparatus on Mueller-Hinton agar plate against 31 test organisms for the primary screening and also against 61 strains of Pseudomonas aeruginosa for the secondary evaluation.

Klebsiella sp. = assay: MIC by serial two-fold agar dilution (Mueller-Hinton agar), Klebsiella sp.; assay type: cell-based
Description: as §1, §2

S. enteritidis = assay: MIC by serial two-fold agar dilution (Mueller-Hinton agar), S. enteritidis; assay type: cell-based
Description: as §1, §2

K. pneumoniae = assay: MIC by serial two-fold agar dilution (Mueller-Hinton agar), K. pneumoniae; assay type: cell-based; conditions: Klebsiella pneumoniae
Description: as §1, §2

S. marcescens = assay: MIC by serial two-fold agar dilution (Mueller-Hinton agar), S. marcescens; assay type: cell-based
Description: as §1, §2

Ps. aeruginosa A9843 = assay: Median curative dose in mice, infection with Ps. aeruginosa; assay type: in vivo; conditions: for ED50: Pseudomonas aeruginosa, A9843, sc
Description: (§3) Median Curative Dose in Mgm./Kg.
(§4) Upon Subcutaneous Injection in Mice

E. cloacae = assay: MIC by serial two-fold agar dilution (Mueller-Hinton agar), E. cloacae; assay type: cell-based; conditions: Enterobacter cloacae
Description: as §1, §2

P. vulgaris = assay: MIC by serial two-fold agar dilution (Mueller-Hinton agar), P. vulgaris; assay type: cell-based
Description: as §1, §2

S. aureus Smith = assay: Median curative dose in mice, infection with S. aureus Smith; assay type: in vivo; conditions: Staphylococcus aureus, sc; subcutaneous injection in mice, S. aureus Smith, Table 4; read-out: Median Curative Dose (PD50)
Description: as §3, §4

Pseudomonas aeruginosa = assay: MIC by agar dilution against 61 strains of Pseudomonas aeruginosa, secondary evaluation; assay type: cell-based
Description: as §1, §2

CC1(C)S[C@@H]2[C@H](NC(=O)C(c3ccccc3)S(=O)(=O)O)C(=O)N2[C@H]1C(=O)O (stereo partly shown) [Sulbenicillin, sulbenicillin]
MIC (P. morganii; Morganella morganii, P. morganii, Table 1, read-out: MIC): > 100 µg/mL
MIC (P. morganii; P. morganii A9553, Table 6): > 100 µg/mL
MIC (Klebsiella sp.; Klebsiella): 12.5 µg/mL (≈ 30.2 µM)
MIC (Klebsiella sp.; Klebsiella sp. A20452, Table 6): 12.5 µg/mL (≈ 30.2 µM)
MIC (S. enteritidis; S. enteritidis A9531, Table 6): 1.6 µg/mL (≈ 3.86 µM)
MIC (S. enteritidis; Salmonella enterica, S. enteritidis, Table 1, read-out: MIC): 1.6 µg/mL (≈ 3.86 µM)
MIC (K. pneumoniae; K. pneumoniae A9977, Table 6): 3.1 µg/mL (≈ 7.48 µM)
MIC (K. pneumoniae; K. pneumoniae, Table 1): 6.3 µg/mL (≈ 15.2 µM)
MIC (S. marcescens; S. marcescens A20019, Table 6): 6.3 µg/mL (≈ 15.2 µM)
MIC (S. marcescens; Serratia marcescens, S. marcescens, Table 1, read-out: MIC): 6.3 µg/mL (≈ 15.2 µM)
ED50 (Ps. aeruginosa A9843; mice, P. aerug. A9843 infection, Table 5, read-out: PD50): 140 mg/kg
ED50 (Ps. aeruginosa A9843; subcutaneous injection in mice, Ps. aeruginosa, Table 4, read-out: Median Curative Dose (PD50)): 85 mg/kg
PD50 (Ps. aeruginosa A9843; mice, P. aerug. A9843 infection, Table 5): 130 mg/kg
MIC (E. cloacae; E. cloacae (1st line), Table 1): 12.5 µg/mL (≈ 30.2 µM)
MIC (E. cloacae; E. cloacae (2nd line), Table 1): > 100 µg/mL
MIC (E. cloacae; E. cloacae (3rd line), Table 1): 12.5 µg/mL (≈ 30.2 µM)
MIC (E. cloacae; E. cloacae A9656, Table 6): 12.5 µg/mL (≈ 30.2 µM)
MIC (E. cloacae; E. cloacae A9657, Table 6): > 100 µg/mL
MIC (E. cloacae; E. cloacae A9659, Table 6): 12.5 µg/mL (≈ 30.2 µM)
MIC (P. vulgaris; P. vulgaris A9539, Table 6): 3.1 µg/mL (≈ 7.48 µM)
MIC (P. vulgaris; Proteus vulgaris, P. vulgaris, Table 1, read-out: MIC): 3.1 µg/mL (≈ 7.48 µM)
ED50 (S. aureus Smith): 2.4 mg/kg
MIC (Pseudomonas aeruginosa; BBRI Pa-No. 1, D15, Table 7): 12.5 µg/mL (≈ 30.2 µM)
MIC (Pseudomonas aeruginosa; BBRI Pa-No. 3, 1449VA, Table 7): 12.5 µg/mL (≈ 30.2 µM)
MIC (Pseudomonas aeruginosa; BBRI Pa-No. 4, H9 D113, Table 7): 12.5 µg/mL (≈ 30.2 µM)
MIC (Pseudomonas aeruginosa; BBRI Pa-No. 9, Yale, Table 7): 12.5 µg/mL (≈ 30.2 µM)
MIC (Pseudomonas aeruginosa; BBRI Pa-No. 14, Table 7): 12.5 µg/mL (≈ 30.2 µM)
MIC (Pseudomonas aeruginosa; BBRI Pa-No. 17, H6 D114, Table 2): 12.5 µg/mL (≈ 30.2 µM)
MIC (Pseudomonas aeruginosa; BBRI Pa-No. 18, H8 D121, Table 2): 12.5 µg/mL (≈ 30.2 µM)
MIC (Pseudomonas aeruginosa; BBRI Pa-No. 19, Table 2): 12.5 µg/mL (≈ 30.2 µM)
MIC (Pseudomonas aeruginosa; BBRI Pa-No. 25, Table 2): 12.5 µg/mL (≈ 30.2 µM)
MIC (Pseudomonas aeruginosa; BBRI Pa-No. 26, Ps32, Table 2): 12.5 µg/mL (≈ 30.2 µM)
MIC (Pseudomonas aeruginosa; BBRI Pa-No. 26, Ps32, Table 7): 12.5 µg/mL (≈ 30.2 µM)
MIC (Pseudomonas aeruginosa; BBRI Pa-No. 31, Table 2): 12.5 µg/mL (≈ 30.2 µM)
MIC (Pseudomonas aeruginosa; BBRI Pa-No. 34, Table 7): 12.5 µg/mL (≈ 30.2 µM)
MIC (Pseudomonas aeruginosa; BBRI Pa-No. 60, Table 2): 12.5 µg/mL (≈ 30.2 µM)
MIC (Pseudomonas aeruginosa; BBRI Pa-No. 60, Table 7): 12.5 µg/mL (≈ 30.2 µM)
MIC (Pseudomonas aeruginosa; Pseudomonas aeruginosa): 12.5 µg/mL (≈ 30.2 µM)
MIC (Pseudomonas aeruginosa; Pseudomonas aeruginosa, 61 strains of Pseudomonas aeruginosa, Table 7, read-out: Geometric Mean of MIC): 24 µg/mL (≈ 57.9 µM)
MIC (Pseudomonas aeruginosa; Pseudomonas aeruginosa, BBRI Pa-No. 1, D15, Table 2, read-out: MIC): 25 µg/mL (≈ 60.3 µM)
MIC (Pseudomonas aeruginosa; Pseudomonas aeruginosa, BBRI Pa-No. 2, VA, Table 7, read-out: MIC): 25 µg/mL (≈ 60.3 µM)
MIC (Pseudomonas aeruginosa; Pseudomonas aeruginosa, BBRI Pa-No. 3, 1449VA, Table 2, read-out: MIC): 6.3 µg/mL (≈ 15.2 µM)
MIC (Pseudomonas aeruginosa; Pseudomonas aeruginosa, BBRI Pa-No. 4, H9 D113, Table 2, read-out: MIC): 25 µg/mL (≈ 60.3 µM)
MIC (Pseudomonas aeruginosa; Pseudomonas aeruginosa, BBRI Pa-No. 5, M4865KC, Table 2, read-out: MIC): 25 µg/mL (≈ 60.3 µM)
MIC (Pseudomonas aeruginosa; Pseudomonas aeruginosa, BBRI Pa-No. 5, N4865KC, Table 7, read-out: MIC): 6.3 µg/mL (≈ 15.2 µM)
MIC (Pseudomonas aeruginosa; Pseudomonas aeruginosa, BBRI Pa-No. 6, No. 5, Table 2, read-out: MIC): > 100 µg/mL
MIC (Pseudomonas aeruginosa; Pseudomonas aeruginosa, BBRI Pa-No. 6, No. 5, Table 7, read-out: MIC): 100 µg/mL (≈ 241 µM)
MIC (Pseudomonas aeruginosa; Pseudomonas aeruginosa, BBRI Pa-No. 7, Table 2, read-out: MIC): 25 µg/mL (≈ 60.3 µM)
MIC (Pseudomonas aeruginosa; Pseudomonas aeruginosa, BBRI Pa-No. 7, Table 7, read-out: MIC): 25 µg/mL (≈ 60.3 µM)
MIC (Pseudomonas aeruginosa; Pseudomonas aeruginosa, BBRI Pa-No. 8, Table 2, read-out: MIC): 25 µg/mL (≈ 60.3 µM)
MIC (Pseudomonas aeruginosa; Pseudomonas aeruginosa, BBRI Pa-No. 8, Table 7, read-out: MIC): 25 µg/mL (≈ 60.3 µM)
MIC (Pseudomonas aeruginosa; Pseudomonas aeruginosa, BBRI Pa-No. 9, Yale, Table 2, read-out: MIC): 25 µg/mL (≈ 60.3 µM)
MIC (Pseudomonas aeruginosa; Pseudomonas aeruginosa, BBRI Pa-No. 10, Table 2, read-out: MIC): > 100 µg/mL
MIC (Pseudomonas aeruginosa; Pseudomonas aeruginosa, BBRI Pa-No. 10, Table 7, read-out: MIC): > 100 µg/mL
MIC (Pseudomonas aeruginosa; Pseudomonas aeruginosa, BBRI Pa-No. 11, Table 2, read-out: MIC): 25 µg/mL (≈ 60.3 µM)
MIC (Pseudomonas aeruginosa; Pseudomonas aeruginosa, BBRI Pa-No. 11, Table 7, read-out: MIC): 25 µg/mL (≈ 60.3 µM)
MIC (Pseudomonas aeruginosa; Pseudomonas aeruginosa, BBRI Pa-No. 12, Table 2, read-out: MIC): 50 µg/mL (≈ 121 µM)
MIC (Pseudomonas aeruginosa; Pseudomonas aeruginosa, BBRI Pa-No. 12, Table 7, read-out: MIC): 25 µg/mL (≈ 60.3 µM)
MIC (Pseudomonas aeruginosa; Pseudomonas aeruginosa, BBRI Pa-No. 14, Table 2, read-out: MIC): 25 µg/mL (≈ 60.3 µM)
MIC (Pseudomonas aeruginosa; Pseudomonas aeruginosa, BBRI Pa-No. 15, Table 2, read-out: MIC): 100 µg/mL (≈ 241 µM)
MIC (Pseudomonas aeruginosa; Pseudomonas aeruginosa, BBRI Pa-No. 15, Table 7, read-out: MIC): 50 µg/mL (≈ 121 µM)
MIC (Pseudomonas aeruginosa; Pseudomonas aeruginosa, BBRI Pa-No. 16, No. 130, Table 2, read-out: MIC): 6.3 µg/mL (≈ 15.2 µM)
MIC (Pseudomonas aeruginosa; Pseudomonas aeruginosa, BBRI Pa-No. 16, No. 130, Table 7, read-out: MIC): 3.1 µg/mL (≈ 7.48 µM)
MIC (Pseudomonas aeruginosa; Pseudomonas aeruginosa, BBRI Pa-No. 17, H6 D114, Table 7, read-out: MIC): 25 µg/mL (≈ 60.3 µM)
MIC (Pseudomonas aeruginosa; Pseudomonas aeruginosa, BBRI Pa-No. 18, H8 D121, Table 7, read-out: MIC): 3.1 µg/mL (≈ 7.48 µM)
MIC (Pseudomonas aeruginosa; Pseudomonas aeruginosa, BBRI Pa-No. 19, Table 7, read-out: MIC): 6.3 µg/mL (≈ 15.2 µM)
MIC (Pseudomonas aeruginosa; Pseudomonas aeruginosa, BBRI Pa-No. 20, Table 2, read-out: MIC): 25 µg/mL (≈ 60.3 µM)
MIC (Pseudomonas aeruginosa; Pseudomonas aeruginosa, BBRI Pa-No. 20, Table 7, read-out: MIC): 25 µg/mL (≈ 60.3 µM)
MIC (Pseudomonas aeruginosa; Pseudomonas aeruginosa, BBRI Pa-No. 21, Table 2, read-out: MIC): 25 µg/mL (≈ 60.3 µM)
MIC (Pseudomonas aeruginosa; Pseudomonas aeruginosa, BBRI Pa-No. 21, Table 7, read-out: MIC): 25 µg/mL (≈ 60.3 µM)
MIC (Pseudomonas aeruginosa; Pseudomonas aeruginosa, BBRI Pa-No. 23, Table 2, read-out: MIC): 50 µg/mL (≈ 121 µM)
MIC (Pseudomonas aeruginosa; Pseudomonas aeruginosa, BBRI Pa-No. 23, Table 7, read-out: MIC): 25 µg/mL (≈ 60.3 µM)
MIC (Pseudomonas aeruginosa; Pseudomonas aeruginosa, BBRI Pa-No. 24, Table 2, read-out: MIC): 100 µg/mL (≈ 241 µM)
